Source: US11859248B2, “Nucleic acid modification and identification method” (IMBA—INSTITUT FÜR MOLEKULARE BIOTECHNOLOGIE GMBH, priority 2017, dated 2024)
Where two headings read alike, the source gives them in different places.

Experiments:
[1] = system: mES cells; assay: Cell viability assay (CellTiter-Glo) of mES cells cultured with s^4U; format: cell-based, mouse; conditions: for EC50: Mus musculus, read-out: EC50 of compromised cell viability
Procedure: 5000 mES cells were seeded per 96 well the day before the experiment. Medium containing different concentrations of s^4U (as indicated) was added to the cells for 12 h or 24 h. Cell viability was assessed by CellTiter-Glo® Luminescent Cell Viability Assay (Promega) according to the instructions of the manufacturer. Luminescent signal was measured on Synergy using Gen5 Software (v2.09.1).
We tested the ability of mouse embryonic stem cells to tolerate s^4U metabolic RNA-labeling after 12 h or 24 h at varying s^4U concentrations (FIG. 6A). […] Under these conditions, we detected a steady increase in s^4U-incorporation in total RNA preparation 3 h, 6 h, 12 h, and 24 h post labeling, as well as a steady decrease 3 h, 6 h, 12 h, and 24 h after uridine chase (FIG. 6B). As expected, the incorporation follows a single exponential kinetics, with a maximum average incorporation of 1.78% s^4U, corresponding to one s^4U incorporation in every 56 uridines in total RNA (FIG. 6C). These experiments establish s^4U-labeling conditions in mES cells, which can be employed to measure RNA biogenesis and turnover rates under unperturbed conditions.

[2] = system: Drosophila S2 cells; assay: HPLC analysis of s^4U-incorporation into total RNA of Drosophila S2 cells; format: cell-based, Drosophila melanogaster; conditions: 500 μM s^4U, 24 h
Procedure: Analysis of s^4U- or s^6G-incorporation into total RNA following metabolic labeling was performed as previously described by Spitzer et al. (Meth Enzymol. 539, 113-161 (2014)).
Upon generating libraries from size-selected total RNA of Drosophila S2 cells after s^4U metabolic labeling for 24 hours, we observed a strong accumulation of T>C conversions when compared to libraries prepared from unlabeled cells, as exemplified for the miR-184 locus, which gives rise to an abundantly expressed microRNA, miR-184-3p, and its less abundant miR*, miR-184-5p (FIG. 12A). In order to confirm this observation at the genomic scale, we aligned reads to annotated microRNA loci in the Drosophila genome and inspected the frequency of any given mutation normalized to overall T-content per miRNA (FIG. 12B). In the absence of s^4U metabolic labeling, we observed a median mutation rate of less than 0.1% for any given mutation, a rate that is consistent with Illumina-reported sequencing error rates. (Note, that iodoacetamide treatment of unlabeled total RNA had no detectable impact on small RNA abundance and mutation rate, as determined by high-throughput sequencing. See FIG. 19). […]

[3] = system: Drosophila S2 cells; assay: Viability of Drosophila S2 cells under s^4U labeling conditions; format: cell-based, Drosophila melanogaster; conditions: 500 μM, 24 h
[4] = system: reverse transcriptases (Superscript II, Superscript III, Quant-seq RT); assay: Reverse transcription of synthetic thiol-nucleotide-containing RNA followed by high-throughput sequencing; format: biochemical; conditions: after iodoacetamide-treatment
Procedure: Primer extension assays were essentially performed as described previously by Nilsen et al. (Cold Spring Harb Protoc. 2013, 1182-1185). Briefly, template RNA oligonucleotides (5L-let-7-3L or 5L-let-7-s^4Up9-3L; Dharmacon; see Table for sequences) were deprotected according to the instructions of the manufacturer and purified by denaturing polyacrylamide gel-elution. 100 μM purified RNA oligonucleotides were treated with 10 mM iodoacetamide (+IAA) or EtOH (−IAA) in standard reaction conditions (50% DMSO, 50 mM sodiumphosphate buffer, pH 8) for 15 min at 50° C. The reaction was stopped by addition of 20 mM DTT, followed by ethanol precipitation. RT primer (see Table for sequence) was 5′ radiolabeled using γ-^32P-ATP (Perkin-Elmer) and T4-polynucleotide kinase (NEB), followed by denaturing polyacrylamide gel-purification. 640 nM γ-^32P-RT primer was annealed to 400 nM 5L-let-7-3L or 5L-let-7-s^4Up9-3L in 2× annealing buffer (500 mM KCl, 50 mM Tris pH 8.3) in a PCR machine (3 min 95° C., 30 sec 85° C. Ramp 0.5° C./s, 5 min 25° C. Ramp 0.1° C./s). Reverse transcription was performed using Superscript II (Invitrogen), Superscript III (Invitrogen), or Quant-seq RT (Lexogen) as recommended by the manufacturer. For dideoxynucleotide reactions, a final concentration of 500 μM ddNTP (as indicated) was added to RT reactions. Upon completion, RT reactions were resuspended in formamide loading buffer (Gel loading buffer II, Thermo Fisher Scientific) and subjected to 12.5% denaturing polyacrylamide gel electrophoresis. Gels were dried, exposed to storage phosphor screen (PerkinElmer), imaged on a Typhoon TRIO variable mode imager (Amersham Biosciences), and quantified using ImageQuant TL v7.0 (GE Healthcare). […]
For sequencing analysis of synthetic RNA samples (FIG. 5) barcoded libraries were demultiplexed using Picard Tools BamIndexDecoder v1.13 allowing 0 mismatches in the barcode. […] Remaining aligned reads were converted to pileup format. […] Output table was analyzed and plotted in Excel v15.22 (Microsoft) and Prism v7.0a (GraphPad). […]

## O=c1[nH]c(=S)ccn1[C@@H]1O[C@H](CO)[C@@H](O)[C@H]1O [s^4U, 4-thiouridine]
[1]; 100 μM s^4U
  effect on cell viability: did not severely affect cell viability
[1]; 12 h labeling
  EC50: 3100 µM
[1]; 24 h labeling
  EC50: 380 µM
[2]
  labeling efficiency in total RNA: 2.3%
[3]
  effect on cell viability: do not interfere with cell viability
[4]
  increase in T to C conversion: 8.5 fold
[4]; all tested RTs
  mutation rate (T to C): more than 0.94
